IC50 data for 18 molecules are collected here from patent publication US20230151003A1, “COMPOUNDS AND METHODS OF USE” (Exelixis, Inc., priority 2020, published 2023).

One may read the IC50 as the midpoint of a concentration-inhibition curve.

In one assay the target is T1, AXL (Homo sapiens, UniProt P30530).
T1 construct: endogenous in cells; host or cells: A-172 glioblastoma cells (ATCC #CRL-1620)
T1 sequence (P30530 26-894): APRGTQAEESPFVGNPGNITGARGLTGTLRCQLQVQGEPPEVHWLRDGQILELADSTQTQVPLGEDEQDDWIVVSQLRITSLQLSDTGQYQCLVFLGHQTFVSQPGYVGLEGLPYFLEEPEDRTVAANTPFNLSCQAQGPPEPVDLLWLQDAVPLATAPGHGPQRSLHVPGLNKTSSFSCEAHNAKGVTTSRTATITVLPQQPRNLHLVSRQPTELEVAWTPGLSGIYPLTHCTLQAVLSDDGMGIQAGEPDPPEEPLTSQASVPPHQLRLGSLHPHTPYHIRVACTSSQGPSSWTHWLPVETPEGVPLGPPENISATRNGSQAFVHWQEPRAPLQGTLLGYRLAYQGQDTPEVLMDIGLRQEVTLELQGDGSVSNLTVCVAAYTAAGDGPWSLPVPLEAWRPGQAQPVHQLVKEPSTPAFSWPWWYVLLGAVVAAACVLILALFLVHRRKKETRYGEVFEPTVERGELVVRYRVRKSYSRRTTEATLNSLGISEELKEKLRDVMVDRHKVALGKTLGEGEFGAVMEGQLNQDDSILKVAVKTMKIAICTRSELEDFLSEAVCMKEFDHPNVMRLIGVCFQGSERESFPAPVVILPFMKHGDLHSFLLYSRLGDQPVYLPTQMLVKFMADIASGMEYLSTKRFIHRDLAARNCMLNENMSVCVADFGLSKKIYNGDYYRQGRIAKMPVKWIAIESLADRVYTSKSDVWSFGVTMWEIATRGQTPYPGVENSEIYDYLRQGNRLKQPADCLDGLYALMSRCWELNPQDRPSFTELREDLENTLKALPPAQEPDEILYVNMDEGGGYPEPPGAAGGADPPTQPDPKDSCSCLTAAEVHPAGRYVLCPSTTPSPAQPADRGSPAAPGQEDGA
In words: AXL autophosphorylation ELISA in A-172 cells. The format is cell-based. The settings on record: Table 3 Cellular Activities, Gas6-stimulated, phospho-AXL ELISA. As to the method: A-172 glioblastoma cells (ATCC #CRL-1620) were seeded at 2.5×10^5 cells/well onto 24-well plates (Greiner #662165), in DMEM (Thermo Fisher #11995-040) containing 10% FBS (Thermo Fisher #26140-079), 1% MEM NEAA (Thermo Fisher #11140-050), 1% GlutaMax (Thermo Fisher #35050-061), and 1% Penicillin Streptomycin (Thermo Fisher #15140-122). A-172 cells were incubated at 37° C., 5% CO2 for 24 h and then starved for 24 h in serum-free medium. Test compounds were serially diluted to produce an 8-point dose curve in fresh serum-free medium to a final concentration of 0.3% DMSO (vehicle) and added to the cells and incubated for 1 h. Cells were then stimulated with 1 μg/mL recombinant human Gas6 (R&D Systems #885-GSB-500) for 15 min, washed with cold PBS, and immediately lysed with 150 μL of cold 1× lysis buffer [20 mM Tris, 137 mM sodium chloride, 2 mM EDTA, 10% glycerol, 1% NP-40 alternative, 1 mM activated sodium orthovanadate, 1 mM PefaBloc SC (Sigma-Aldrich #11429868001), protease/phosphatase inhibitor tablet (Thermo Fisher #A32959)]. Lysates were collected and 100 μL/well added into the human phospho-AXL DuoSet IC ELISA (R&D Systems #DYC2228-2). Assay was performed according to manufacturer's instructions and sample phospho-AXL concentrations were extrapolated using human phospho-AXL control (R&D Systems #841645) as a standard. Positive control wells (100% activity) contained Gas6-stimulated, DMSO-treated cell lysates. Negative control wells (0% activity) contained Gas6-stimulated, reference inhibitor-treated cell lysates. IC50 values were calculated by nonlinear regression analysis using a 4-parameter logistic curve fit in ActivityBase XE (IDBS).
On the technique in general: ELISA stands for enzyme-linked immunosorbent assay.

Another assay deals with Met (Homo sapiens, UniProt P08581). The assay is described as follows: Met autophosphorylation ELISA in PC-3 cells. It is filed as cell-based. Details: endogenous in cells; host or cells: PC-3 prostate cancer cells (ATCC #CRL-1435). The settings on record: Table 3 Cellular Activities, HGF-stimulated, phospho-Met ELISA, read-out: c-Met IC50. The essentials: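 Serum-starved (3 h) PC-3 cells pre-incubated 1 h with compound (8-point dose curve, 0.3% DMSO), then stimulated with 100 ng/mL recombinant human HGF for 10 min. Lysate phospho-Met (panTyr) measured by sandwich ELISA; IC50 from 4-parameter logistic fit, normalised to DMSO (100%) and reference-inhibitor (0%) controls.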

Structures can show the parent of a compound that is named as a salt.

Sequence of Met (P08581 25-1390): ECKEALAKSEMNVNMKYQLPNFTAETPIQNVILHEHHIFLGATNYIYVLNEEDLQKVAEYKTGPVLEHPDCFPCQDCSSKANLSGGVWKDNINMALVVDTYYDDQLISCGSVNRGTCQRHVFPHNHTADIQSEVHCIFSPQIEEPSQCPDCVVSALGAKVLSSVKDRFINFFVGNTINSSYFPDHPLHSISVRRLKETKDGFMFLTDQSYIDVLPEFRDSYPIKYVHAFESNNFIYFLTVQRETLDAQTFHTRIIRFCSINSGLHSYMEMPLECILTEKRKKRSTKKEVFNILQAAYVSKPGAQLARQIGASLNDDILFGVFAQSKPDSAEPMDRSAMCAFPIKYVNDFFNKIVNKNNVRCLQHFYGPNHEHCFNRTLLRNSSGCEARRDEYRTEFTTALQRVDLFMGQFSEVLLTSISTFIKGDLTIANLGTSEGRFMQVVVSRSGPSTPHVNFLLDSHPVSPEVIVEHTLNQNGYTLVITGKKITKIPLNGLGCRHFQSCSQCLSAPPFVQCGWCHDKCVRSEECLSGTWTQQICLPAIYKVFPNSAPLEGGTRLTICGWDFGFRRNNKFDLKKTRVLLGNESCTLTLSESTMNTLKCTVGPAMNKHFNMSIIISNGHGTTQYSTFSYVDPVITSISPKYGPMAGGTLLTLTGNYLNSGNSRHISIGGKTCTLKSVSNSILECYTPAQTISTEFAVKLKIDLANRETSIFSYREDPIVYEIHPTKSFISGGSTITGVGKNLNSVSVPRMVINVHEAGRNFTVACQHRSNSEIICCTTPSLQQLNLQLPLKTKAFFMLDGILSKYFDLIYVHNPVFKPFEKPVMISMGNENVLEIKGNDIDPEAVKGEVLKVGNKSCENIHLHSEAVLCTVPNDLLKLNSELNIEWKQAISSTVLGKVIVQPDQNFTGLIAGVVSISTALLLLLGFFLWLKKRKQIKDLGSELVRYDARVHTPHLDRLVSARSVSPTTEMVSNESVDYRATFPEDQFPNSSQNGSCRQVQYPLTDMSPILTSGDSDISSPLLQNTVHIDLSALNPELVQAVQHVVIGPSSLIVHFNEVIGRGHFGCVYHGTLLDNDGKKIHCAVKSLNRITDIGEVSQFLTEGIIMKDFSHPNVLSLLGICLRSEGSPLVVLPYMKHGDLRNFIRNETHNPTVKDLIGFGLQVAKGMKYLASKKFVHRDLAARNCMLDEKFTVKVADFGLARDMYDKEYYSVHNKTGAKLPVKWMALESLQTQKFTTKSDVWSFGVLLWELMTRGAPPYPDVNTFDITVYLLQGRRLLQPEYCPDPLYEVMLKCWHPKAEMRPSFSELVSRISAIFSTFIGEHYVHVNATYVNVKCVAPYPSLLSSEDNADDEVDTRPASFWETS

For `COc1cc2nccc(Oc3ccc(NC(=O)c4c(C)n(C)cc(-c5ccc(F)cn5)c4=O)cc3F)c2nc1OC` [Compound 71, N-[4-[(6,7-Dimethoxy-1,5-naphthyridin-4-yl)oxy]-3-fluorophenyl]-5-(5-fluoropyridin-2-yl)-1,2-dimethyl-4-oxopyridine-3-carboxamide], the IC50 at AXL and at Met was ≤ 100 nM in each case.
As for `COc1cc2nccc(Oc3ccc(NC(=O)c4c(C)n(C)cc(-c5ccc(F)cn5)c4=O)cc3)c2nc1OC` [Compound 72, N-[4-[(6,7-Dimethoxy-1,5-naphthyridin-4-yl)oxy]phenyl]-5-(5-fluoropyridin-2-yl)-1,2-dimethyl-4-oxopyridine-3-carboxamide], the IC50 on AXL and on Met was ≤ 100 nM in each case.
Regarding `COc1cnc2c(Oc3ccc(NC(=O)c4c(C)n(C)cc(-c5ccc(F)cn5)c4=O)cc3F)ccnc2c1` [Compound 73, N-[3-Fluoro-4-[(7-methoxy-1,5-naphthyridin-4-yl)oxy]phenyl]-5-(5-fluoropyridin-2-yl)-1,2-dimethyl-4-oxopyridine-3-carboxamide], the 50% inhibitory concentration (IC50) against AXL and at Met was ≤ 100 nM each time.
As to `COc1cc2nccc(Oc3ccc(NC(=O)c4cnc(C)c(-c5ccc(F)cn5)c4O)cc3F)c2nc1OC` [Compound 85, N-[4-[(6,7-Dimethoxy-1,5-naphthyridin-4-yl)oxy]-3-fluorophenyl]-5-(5-fluoropyridin-2-yl)-4-hydroxy-6-methylpyridine-3-carboxamide], the IC50 against AXL and on Met was ≤ 100 nM in each case.
With `COc1cc2nccc(Oc3ccc(NC(=O)c4cn(C)c(C)c(-c5ccc(F)cn5)c4=O)cc3)c2nc1OC` [Compound 86, N-[4-[(6,7-Dimethoxy-1,5-naphthyridin-4-yl)oxy]phenyl]-5-(5-fluoropyridin-2-yl)-1,6-dimethyl-4-oxopyridine-3-carboxamide], the IC50 at AXL and on Met was ≤ 100 nM in each case.
Regarding `COc1cc2nccc(Oc3ccc(NC(=O)c4c(C)ncc(-c5ncc(F)cc5C)c4O)cc3F)c2nc1OC` [Compound 200, N-[4-[(6,7-Dimethoxy-1,5-naphthyridin-4-yl)oxy]-3-fluorophenyl]-5-(5-fluoro-3-methylpyridin-2-yl)-4-hydroxy-2-methylpyridine-3-carboxamide], the IC50 against AXL and at Met was ≤ 100 nM throughout.
As for `COCc1nc(C)c(-c2ccc(F)cn2)c(O)c1C(=O)Nc1ccc(Oc2ccnc3cc(OC)c(OC)nc23)c(F)c1` [Compound 214, N-[4-[(6,7-Dimethoxy-1,5-naphthyridin-4-yl)oxy]-3-fluorophenyl]-5-(5-fluoropyridin-2-yl)-4-hydroxy-2-(methoxymethyl)-6-methylpyridine-3-carboxamid], the IC50 on AXL and at Met was ≤ 100 nM throughout.
Turning to `COc1cc2nccc(Oc3ccc(NC(=O)c4nnc(C)c(-c5ccc(F)cn5)c4OC)cc3F)c2nc1OC` [Compound 215, N-[4-[(6,7-Dimethoxy-1,5-naphthyridin-4-yl)oxy]-3-fluorophenyl]-5-(5-fluoropyridin-2-yl)-4-methoxy-6-methylpyridazine-3-carboxamide], the IC50 on AXL and on Met was ≤ 100 nM throughout.
For the molecule `COc1cc2nccc(Oc3ccc(NC(=O)c4c(C)nc(C)c(-c5ccc(F)cn5)c4O)cc3)c2nc1OC` [Compound 216, N-[4-[(6,7-Dimethoxy-1,5-naphthyridin-4-yl)oxy]phenyl]-5-(5-fluoropyridin-2-yl)-4-hydroxy-2,6-dimethylpyridine-3-carboxamide], the IC50 against AXL and at Met was ≤ 100 nM each time.
`COc1cnc2c(Oc3ccc(NC(=O)c4c(C)nc(C)c(-c5ccc(F)cn5)c4O)cc3F)ccnc2c1` [Compound 217, N-[3-Fluoro-4-[(7-methoxy-1,5-naphthyridin-4-yl)oxy]phenyl]-5-(5-fluoropyridin-2-yl)-4-hydroxy-2,6-dimethylpyridine-3-carboxamide]: the IC50 against AXL and at Met was ≤ 100 nM in each case.
As for `COc1cc2nccc(Oc3ccc(NC(=O)c4c(C)nc(C)c(-c5ccc(F)cn5)c4O)cc3F)c2nc1OC` [Compound 218, N-[4-[(6,7-Dimethoxy-1,5-naphthyridin-4-yl)oxy]-3-fluorophenyl]-5-(5-fluoropyridin-2-yl)-4-hydroxy-2,6-dimethylpyridine-3-carboxamide], the IC50 at AXL and at Met was ≤ 100 nM throughout.
Turning to `COc1cc2nccc(Oc3ccc(NC(=O)c4ncc(C)n(-c5ccc(F)cn5)c4=O)cc3F)c2nc1OC` [Compound 219, N-[4-[(6,7-Dimethoxy-1,5-naphthyridin-4-yl)oxy]-3-fluorophenyl]-4-(5-fluoropyridin-2-yl)-5-methyl-3-oxopyrazine-2-carboxamide], the IC50 at AXL and on Met was ≤ 100 nM in each case.
With `COc1cc2nccc(Oc3ccc(NC(=O)c4ccc(C)n(-c5ccncc5F)c4=O)cc3F)c2nc1OC` [Compound 220, N-[4-[(6,7-Dimethoxy-1,5-naphthyridin-4-yl)oxy]-3-fluorophenyl]-1-(3-fluoropyridin-4-yl)-6-methyl-2-oxopyridine-3-carboxamide], the IC50 at AXL and on Met was ≤ 100 nM in each case.
Turning to `COc1cc2nccc(Oc3ccc(NC(=O)c4ccc(C)n(-c5ccncc5)c4=O)cc3F)c2nc1OC` [Compound 221, N-[4-[(6,7-Dimethoxy-1,5-naphthyridin-4-yl)oxy]-3-fluorophenyl]-6-methyl-2-oxo-1-pyridin-4-ylpyridine-3-carboxamid], the IC50 at AXL and on Met was ≤ 100 nM each time.
`COc1cc2nccc(Oc3ccc(NC(=O)c4ccc(C)n(-c5cccnc5)c4=O)cc3F)c2nc1OC` [Compound 222, N-[4-[(6,7-Dimethoxy-1,5-naphthyridin-4-yl)oxy]-3-fluorophenyl]-6-methyl-2-oxo-1-pyridin-3-ylpyridine-3-carboxamide]: the IC50 against AXL and at Met was ≤ 100 nM each time.
Turning to `COc1cc2c(Oc3ccc(NC(=O)c4c(C)ncc(-c5ccccn5)c4O)cc3F)ccnc2cn1` [Compound 223, N-[3-Fluoro-4-[(6-methoxy-1,7-naphthyridin-4-yl)oxy]phenyl]-4-hydroxy-2-methyl-5-pyridin-2-ylpyridine-3-carboxamide], the concentration for half-maximal inhibition (IC50) against AXL and on Met was ≤ 100 nM each time.
For `COc1cc(-n2c(C)ccc(C(=O)Nc3ccc(Oc4ccnc5cc(OC)c(OC)nc45)c(F)c3)c2=O)ccn1` [Compound 226, N-[4-[(6,7-Dimethoxy-1,5-naphthyridin-4-yl)oxy]-3-fluorophenyl]-1-(2-methoxypyridin-4-yl)-6-methyl-2-oxopyridine-3-carboxamide], the IC50 against AXL and at Met was ≤ 100 nM in each case.
For `COc1cc2nccc(Oc3ccc(NC(=O)c4ccc(C)n(-c5ccc(F)c(C)n5)c4=O)cc3F)c2nc1OC` [Compound 227, N-[4-[(6,7-Dimethoxy-1,5-naphthyridin-4-yl)oxy]-3-fluorophenyl]-1-(5-fluoro-6-methylpyridin-2-yl)-6-methyl-2-oxopyridine-3-carboxamide hydrochloride], the IC50 on AXL and on Met was ≤ 100 nM each time.
